According to US20200093776A1, “MUCOSAL IMMUNOSTIMULATOR” (Yamada Bee Company, Inc., priority 2015, published 2020):

Assays:
Caco-2 cells [1] = assay: M-cell differentiation induction test, FACS analysis using GP2 as an indicator; type: cell-based, human; settings: Caco-2 single-layer film, final concentration 100 μM, cultured 3 days; for expression of GP2 (FACS): vs DMSO control
Protocol: (§1) As an in vitro M-cell model, Caco-2 cells derived from human intestinal epithelium cells were used. The Caco-2 cells were cultured in an EMEM medium (produced by Nissui Pharmaceutical Co., Ltd.) supplemented with 2% fetal calf serum (FCS, produced by CANSERA INTERNATIONAL), 2 mM glutamine (produced by Wako Pure Chemical Industries, Ltd.), and 0.1 mM nonessential amino acid (produced by Gibco) at 37° C. in the presence of 5% CO2. The cells were subcultured within a range of logarithmic growth (2.0×10^5 to 1.0×10^6 cells/mL). The cell concentration was determined by counting the number of living cells and the number of dead cells by the trypan blue staining method.
The induction of the differentiation of M cells by various fatty acids (10-hydroxydecanoic acid, (+/−)-3-hydroxydecanoic acid, (9R)-9,10-dihydroxydecanoic acid, and 10-hydroxy-2-(E)-decenoic acid) was analyzed by FACS using GP2 as an indicator. As the 10-hydroxydecanoic acid (10HDAA), one produced by SIGMA-ALDRICH was used; as the (+/−)-3-hydroxydecanoic acid (311DAA), one produced by SIGMA-ALDRICH was used; and as the 10-hydroxy-2-(E)-decenoic acid (10-HDA), one produced by Wako Pure Chemical Industries, Ltd. was used. The (9R)-9,10-dihydroxydecanoic acid (DDA-11) used was, synthesized based on the method described in Tetrahedron: Asymmetry, 2009, 20, pp. 457-460, by tosylating (4R)-4-(2-hydroxyethyl)-2,2-dimethyl-1,3-dioxolane, and extending the chain with 5-bromo-1-pentene by a Grignard reaction, followed by ozone degradation, Wittig reaction with diethylphosphonic acid ethyl ester, hydrogenation by a catalytic hydrogenation reaction, removal of acetonide by acetic acid treatment, and removal of the ethyl group by potassium hydroxide treatment.
Each of the above fatty acids was prepared as a DMSO solution (10 mM). After the Caco-2 cells were seeded in a 6-well plate and allowed to form a single-layer film, each of the above fatty acids was added so that the final concentration was […]. The same amount of DMSO was added as a control. The medium was as described above. After addition, the cells were cultured at 37° C. in the presence of 5% CO2 for 3 days. After culture, the cells were collected with 1 mM EDTA.2Na/PBS(−) (pH 7.2), and stained with rabbit anti-GP2 antibody (produced by IMGENEX) and Alexa 488-labeled anti-rabbit antibody (produced by Molecular probes). The stained cells were analyzed by FACS (produced by BECKMAN COULTER), and GP2 expression levels were quantified.

Caco-2 cells [2] = assay: M-cell differentiation induction test, morphological analysis by electron microscope; type: cell-based, human; settings: Caco-2 in Transwell insert, 100 μM applied from the apical side, 3 days
Protocol: as §1
After the Caco-2 cells were seeded at 2×10^5 cells in a Transwell insert ([…] Transwell, produced by Corning) and allowed to form a single-layer film, 10-hydroxydecanoic acid (final concentration: […]) was applied from the apical side of the single-layer film, and the cells were cultured at 37° C. in the presence of 5% CO2 for 3 days.

cynomolgus monkeys = test system: cynomolgus monkeys; set-up: species or system Macaca fascicularis; settings: cynomolgus monkey, in vivo, po

| SMILES | expression of GP2 (FACS) (Caco-2 cells [1]) | cell morphology (microvilli, M cell-like cells) (Caco-2 cells [2]) | anti-Fetuin IgA antibody titer in the feces (cynomolgus monkeys) | anti-influenza virus IgA antibody titer in the feces (cynomolgus monkeys) | anti-poliovirus IgA antibody titer in the feces (cynomolgus monkeys) | intensity of induction of GP2 expression compared with (+/−)-3-hydroxydecanoic acid (Caco-2 cells [1]) |
| --- | --- | --- | --- | --- | --- | --- |
| CCCCCCCC(O)CC(=O)O (racemic) [(+/−)-3-hydroxydecanoic acid] | induced the expression of GP2 |  |  |  |  |  |
| O=C(O)/C=C/CCCCCCCO [10-hydroxy-2-(E)-decenoic acid, reference compound] | did not induce the expression of GP2 |  |  |  |  |  |
| O=C(O)CCCCCCC[C@@H](O)CO [(9R)-9,10-dihydroxydecanoic acid, reference compound] | did not induce the expression of GP2 |  |  |  |  |  |
| O=C(O)CCCCCCCCCO [10-hydroxydecanoic acid] | induced the expression of GP2 | cells with short microvilli were observed | increases | increases | increases | induced more intensely the expression of GP2 |
